Measurements: patent publication US9006455B2 (Bristol-Myers Squibb Company, priority 2009, dated 2015)
pEC50: −log10 of the molar value.

Each molecule was assayed on HCV 1b genotype (assay: HCV Replicon assay (HCV 1b genotype)). Details: Hepatitis C virus; HCV 1b genotype replicon; read-out: EC50.
Type: cell-based
Procedure, shortened: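 Cell-based HCV genotype 1b replicon assay in HCV-neo replicon cells, including replicons carrying NS5A resistance substitutions; luciferase reporter read-outs also used.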
`COC(=O)N[C@H](C(=O)N(C)[C@@H](C)c1ncc(-c2ccc(-c3ccc4cc(-c5cnc([C@H](C)N(C)C(=O)[C@@H](NC(=O)OC)C(C)C)[nH]5)ccc4c3)cc2)[nH]1)C(C)C` [Example 126, Methyl((1S)-1-(((1S)-1-(4-(4-(6-(2-((1S)-1-(((2S)-2-((methoxycarbonyl)amino)-3-methylbutanoyl)(methyl)amino)ethyl)-1H-imidazol-4-yl)-2-naphthyl)phenyl)-1H-imidazol-2-yl)ethyl)(methyl)carbamoyl)-2-methylpropyl)carbamate] gave a pEC50 of 9.18.

Same assay, conditions: Hepatitis C virus; HCV 1b genotype replicon; read-out: Range (EC50 values against HCV 1b)
In the case of `COC(=O)N[C@H](C(=O)N(C)[C@@H](C)c1ncc(-c2ccc(-c3ccc4cc(-c5cnc([C@H](C)N(C)C(=O)[C@@H](NC(=O)OC)C(C)C)[nH]5)ccc4c3)cc2)[nH]1)C(C)C` [Example 126, Methyl((1S)-1-(((1S)-1-(4-(4-(6-(2-((1S)-1-(((2S)-2-((methoxycarbonyl)amino)-3-methylbutanoyl)(methyl)amino)ethyl)-1H-imidazol-4-yl)-2-naphthyl)phenyl)-1H-imidazol-2-yl)ethyl)(methyl)carbamoyl)-2-methylpropyl)carbamate], the pEC50 was 9.00 to 11.00. Molecule `COC(=O)N[C@H](C(=O)N1C[C@@H](C)C[C@H]1c1ncc(-c2ccc(-c3ccc4cc(-c5cnc([C@@H]6C[C@H](C)CN6C(=O)[C@@H](NC(=O)OC)C6CCOCC6)[nH]5)ccc4c3)cc2)[nH]1)C1CCOCC1` [Example 129, Methyl(2-((2S,4S)-2-(4-(4-(6-(2-((2S,4S)-1-(((methoxycarbonyl)amino)(tetrahydro-2H-pyran-4-yl)acetyl)-4-methyl-2-pyrrolidinyl)-1H-imidazol-4-yl)-2-naphthyl)phenyl)-1H-imidazol-2-yl)-4-methyl-1-pyrrolidinyl)-2-oxo-1-(tetrahydro-2H-pyran-4-yl)ethyl)carbamate] has a pEC50 of 9.00 to 11.00. In the case of `COC(=O)N[C@H](C(=O)N1[C@H](c2ncc(-c3ccc(-c4ccc5cc(-c6cnc([C@@H]7C[C@@H]8C[C@@H]8N7C(=O)[C@@H](NC(=O)OC)C(C)C)[nH]6)ccc5c4)cc3)[nH]2)C[C@@H]2C[C@@H]21)C(C)C` [Example 135, Methyl((1S)-1-(((1S,3S,5S)-3-(4-(4-(6-(2-((1S,3S,5S)-2-((2S)-2-((methoxycarbonyl)amino)-3-methylbutanoyl)-2-azabicyclo[3.1.0]hex-3-yl)-1H-imidazol-4-yl)-2-naphthyl)phenyl)-1H-imidazol-2-yl)-2-azabicyclo[3.1.0]hex-2-yl)carbonyl)-2-methylpropyl)carbamate], the pEC50 was 9.00 to 11.00. Molecule `CC(C)(C)OC(=O)N1CCC[C@H]1c1nc(-c2ccc3cc(-c4c[nH]c([C@@H]5CCCN5C(=O)OC(C)(C)C)n4)ccc3c2)c[nH]1` [Intermediate 52, (2S,2′S)-tert-Butyl 2,2′-(4,4′-(naphthalene-2,6-diyl)bis(1H-imidazole-4,2-diyl))dipyrrolidine-1-carboxylate] has a pEC50 of 6.00 to 9.00. In the case of `CC(C)(C)OC(=O)N1[C@@H]2C[C@@H]2C[C@H]1c1nc2ccc(-c3ccc4nc(-c5ccc6nc([C@@H]7C[C@H]8C[C@H]8N7C(=O)OC(C)(C)C)[nH]c6c5)ccc4c3)cc2[nH]1` [Intermediate 70, tert-Butyl(1R,3S,5R)-3-(5-(2-(2-((1R,3S,5R)-2-(tert-butoxycarbonyl)-2-azabicyclo[3.1.0]hex-3-yl)-1H-benzimidazol-6-yl)-6-quinolinyl)-1H-benzimidazol-2-yl)-2-azabicyclo[3.1.0]hexane-2-carboxylate], the pEC50 was 6.00 to 9.00. `O=C(OCc1ccccc1)N1CCC[C@H]1c1nc2cc(-c3ccc4cc(-c5cnc6[nH]c([C@@H]7CCCN7C(=O)OCc7ccccc7)nc6c5)ccc4c3)cnc2[nH]1` [Intermediate 114, Benzyl(2S)-2-(6-(6-(2-((2S)-1-((benzyloxy)carbonyl)-2-pyrrolidinyl)-1H-imidazo[4,5-b]pyridin-6-yl)-2-naphthyl)-3H-imidazo[4,5-b]pyridin-2-yl)-1-pyrrolidinecarboxylate] showed a pEC50 of 6.00 to 9.00.
